The text below walks through data of patent US8809535B2, “Substituted pyridines having herbicidal action” (BASF SE, priority 2010, dated 2014).

Holding throughout (assay): greenhouse post-emergence herbicidal test
One test deals with GALAP. The test is classed as in vivo, Galium aparine. To be noted: application rate 0.25 kg/ha, scale 0 to 100. The source says:
(§1) The culture containers used were plastic flowerpots containing loamy sand with approximately 3.0% of humus as the substrate. The seeds of the test plants were sown separately for each species.
(§2) For the post-emergence treatment, the test plants were first grown to a height of 3 to 15 cm, depending on the plant habit, and only then treated with the active ingredients which had been suspended or emulsified in water. For this purpose, the test plants were either sown directly and grown in the same containers, or they were first grown separately as seedlings and transplanted into the test containers a few days prior to treatment.
(§3) Depending on the species, the plants were kept at 10-25° C. or 20-35° C. The test period extended over 2 to 4 weeks. During this time, the plants were tended, and their response to the individual treatments was evaluated.
(§4) Evaluation was carried out using a scale from 0 to 100. 100 means no emergence of the plants, or complete destruction of at least the aerial moieties, and 0 means no damage, or normal course of growth. A good herbicidal activity is given at values of at least 70 and a very good herbicidal activity is given at values of at least 85.
(§5) The plants used in the greenhouse experiments belonged to the following species: […]

The next test concerns SETVI. The test is classed as in vivo, Setaria viridis. To be noted: application rate 0.25 kg/ha, scale 0 to 100.
From the text: as §1, §2, §3, §4, §5

The next test deals with ECHCG. The test is classed as in vivo, Echinochloa crus-galli. To be noted: application rate 0.177 kg/ha, scale 0 to 100.
From the text: as §1, §2, §3, §4, §5

As to `O=c1oc2cccnc2c(O)c1-c1cc(Cl)cc(N2CCOCC2)c1C(F)(F)F` [Compound I-49, 3-[5-chloro-3-morpholino-2-(trifluoromethyl)phenyl]-4-hydroxy-pyrano[3,2-b]pyridin-2-one], the “herbicidal activity against GALAP” value in the test on GALAP is recorded as “very good herbicidal activity (a very good herbicidal activity is given at values of at least 85)”. For the same compound, the “herbicidal activity against SETVI” value in the test on SETVI was “very good herbicidal activity (a very good herbicidal activity is given at values of at least 85)”.

Turning to `O=c1oc2cccnc2c(O)c1-c1cccc(N2CCOCC2)c1C(F)(F)F` [Compound I-26], the “herbicidal activity against ECHCG” value with ECHCG was “very good herbicidal activity (a very good herbicidal activity is given at values of at least 85)”.
